Results: ChEMBL document CHEMBL1909046, “DrugMatrix in vitro pharmacology data”

Columns and labels:
[1] = DRUGMATRIX: Sodium/nucleoside co-transporter radioligand binding (ligand: nitrobenzylthioinosine); type: cell membranes, Cavia porcellus, Dunkin-Hartley, Cerebral cortex, Membrane; conditions: Not Active = under 50% inhibition at 10 µM
[2] = target: T1, Alpha-1A adrenergic receptor (Rattus norvegicus, UniProt P43140); assay: DRUGMATRIX: Alpha-1A adrenergic receptor radioligand binding (ligand: prazosin); type: cell membranes, Wistar, Submaxillary gland, Membrane; conditions: Not Active = under 50% inhibition at 10 µM
T1 sequence (P43140 whole entry): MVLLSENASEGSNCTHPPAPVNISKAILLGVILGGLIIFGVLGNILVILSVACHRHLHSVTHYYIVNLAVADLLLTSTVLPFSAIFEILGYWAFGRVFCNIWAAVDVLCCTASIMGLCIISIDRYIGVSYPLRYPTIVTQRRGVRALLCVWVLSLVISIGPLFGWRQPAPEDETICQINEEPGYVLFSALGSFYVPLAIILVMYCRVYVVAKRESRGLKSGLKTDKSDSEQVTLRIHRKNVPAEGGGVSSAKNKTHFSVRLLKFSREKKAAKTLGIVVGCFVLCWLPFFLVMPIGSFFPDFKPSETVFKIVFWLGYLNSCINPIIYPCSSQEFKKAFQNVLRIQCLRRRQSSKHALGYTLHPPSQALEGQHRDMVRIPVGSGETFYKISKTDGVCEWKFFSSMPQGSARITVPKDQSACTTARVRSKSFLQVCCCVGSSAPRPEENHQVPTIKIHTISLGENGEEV

[3] = target: C-C chemokine receptor type 2 (Homo sapiens, UniProt P41597); type: cell membranes, Membrane; conditions: cho-k1; further: in other assays of this panel Not Active means under 50% inhibition at 10 µM
C-C chemokine receptor type 2, sequence (P41597 whole entry): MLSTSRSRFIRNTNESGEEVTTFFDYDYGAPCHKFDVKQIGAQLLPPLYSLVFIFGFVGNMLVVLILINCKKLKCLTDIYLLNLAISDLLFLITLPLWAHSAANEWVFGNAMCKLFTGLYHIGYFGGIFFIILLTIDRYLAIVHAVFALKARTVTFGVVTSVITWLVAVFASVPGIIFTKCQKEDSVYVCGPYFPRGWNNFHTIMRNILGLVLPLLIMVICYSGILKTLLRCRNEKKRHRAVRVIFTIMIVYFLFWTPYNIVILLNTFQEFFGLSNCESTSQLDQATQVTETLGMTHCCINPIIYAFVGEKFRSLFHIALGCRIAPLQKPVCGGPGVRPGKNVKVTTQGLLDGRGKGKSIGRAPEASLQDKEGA

[4] = target: Histamine H2 receptor (Homo sapiens, UniProt P25021); type: cell membranes, CHO-K1, Membrane; further: in other assays of this panel Not Active means under 50% inhibition at 10 µM
Histamine H2 receptor, sequence (P25021 whole entry): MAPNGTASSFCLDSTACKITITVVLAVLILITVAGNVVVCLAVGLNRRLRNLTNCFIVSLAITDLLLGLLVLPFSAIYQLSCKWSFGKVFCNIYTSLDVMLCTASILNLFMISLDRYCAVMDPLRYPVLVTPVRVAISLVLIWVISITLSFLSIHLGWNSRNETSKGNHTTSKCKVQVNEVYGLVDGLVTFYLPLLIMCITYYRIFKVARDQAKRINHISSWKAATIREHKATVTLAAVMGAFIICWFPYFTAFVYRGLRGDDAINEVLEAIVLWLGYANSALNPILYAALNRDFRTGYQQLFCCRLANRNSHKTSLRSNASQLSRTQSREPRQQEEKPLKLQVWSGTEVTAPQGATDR

[5] = DRUGMATRIX: Potassium Channel [KATP] radioligand binding (ligand: [3H] Glyburide); type: cell membranes, Membrane; conditions: hit-t15; Not Active = under 50% inhibition at 10 µM
[6] = target: 5-hydroxytryptamine receptor 1B (Rattus norvegicus, UniProt P28564); type: cell membranes, Wistar, Cerebral cortex, Membrane; further: in other assays of this panel Not Active means under 50% inhibition at 10 µM
5-hydroxytryptamine receptor 1B, sequence (P28564 whole entry): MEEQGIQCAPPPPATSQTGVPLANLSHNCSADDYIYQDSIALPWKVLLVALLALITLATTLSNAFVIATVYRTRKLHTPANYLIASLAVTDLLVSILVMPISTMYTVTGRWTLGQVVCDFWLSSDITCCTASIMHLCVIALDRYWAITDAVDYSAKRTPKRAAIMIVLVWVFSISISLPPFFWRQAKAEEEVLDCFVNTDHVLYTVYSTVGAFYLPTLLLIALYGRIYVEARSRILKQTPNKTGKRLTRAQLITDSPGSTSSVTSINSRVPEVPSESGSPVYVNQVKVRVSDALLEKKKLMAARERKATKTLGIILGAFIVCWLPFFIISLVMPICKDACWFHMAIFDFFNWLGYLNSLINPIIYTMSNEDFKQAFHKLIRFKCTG

[7] = target: T2, Cytochrome P450 1A2 (Homo sapiens, UniProt P05177); conditions: bti-tn-5b1-4; further: in other assays of this panel Not Active means under 50% inhibition at 10 µM
T2 sequence (P05177 whole entry): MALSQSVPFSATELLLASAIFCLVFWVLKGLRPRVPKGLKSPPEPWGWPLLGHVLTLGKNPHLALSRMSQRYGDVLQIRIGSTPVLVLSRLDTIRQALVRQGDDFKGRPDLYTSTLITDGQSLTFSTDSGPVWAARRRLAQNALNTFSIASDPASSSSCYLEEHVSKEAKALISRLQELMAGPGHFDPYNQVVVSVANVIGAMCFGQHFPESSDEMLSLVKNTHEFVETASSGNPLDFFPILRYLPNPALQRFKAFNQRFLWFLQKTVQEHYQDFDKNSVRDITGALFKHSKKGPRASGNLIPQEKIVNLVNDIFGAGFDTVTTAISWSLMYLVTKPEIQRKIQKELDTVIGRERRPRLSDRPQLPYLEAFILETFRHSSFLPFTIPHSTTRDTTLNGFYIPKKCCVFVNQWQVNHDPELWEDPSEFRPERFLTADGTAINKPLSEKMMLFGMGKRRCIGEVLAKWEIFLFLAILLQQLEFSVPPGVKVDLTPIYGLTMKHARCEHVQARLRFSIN

Compound | IC50 [1] | Ki [1] | IC50 [2] | IC50 [3] | IC50 ([4]; cho-k1) | IC50 [5] | Ki [5] | IC50 [6] | IC50 [7] | Ki [7] | IC50 ([4]; read-out: IC50) | Ki ([4]; read-out: Ki) | Ki [2] | Ki [3] | Ki ([4]; cho-k1) | Ki [6]
CCCOc1ccc(C(=O)OCCN(CC)CC)cc1N [PROPARACAINE] | Not Active | Not Active | Not Active | Not Active | Not Active | Not Active | Not Active | Not Active | Not Active | Not Active |  |  |  |  |  | 
CC(=O)[C@H]1[C@H](C#N)C[C@H]2[C@@H]3CC=C4C[C@@H](O)CC[C@]4(C)[C@H]3CC[C@@]21C [PREGNENOLONE CARBONITRILE] | Not Active | Not Active | Not Active | Not Active | Not Active | Not Active | Not Active | Not Active | Not Active | Not Active |  |  |  |  |  | 
CN(C)CC[C@@H](c1ccc(Cl)cc1)c1ccccn1 [DEXCHLORPHENIRAMINE] | Not Active | Not Active | Not Active | Not Active |  | Not Active | Not Active | Not Active | Not Active | Not Active | 8.37 µM | 8.23 µM |  |  |  | 
CC[C@H](C)[C@H]1O[C@]2(C=C[C@@H]1C)C[C@@H]1C[C@@H](C/C=C(\C)[C@@H](O[C@H]3C[C@H](OC)[C@@H](O[C@H]4C[C@H](OC)[C@@H](O)[C@H](C)O4)[C@H](C)O3)[C@@H](C)/C=C/C=C3\CO[C@@H]4[C@H](O)C(C)=C[C@@H](C(=O)O1)[C@]34O)O2.CO[C@H]1C[C@H](O[C@H]2[C@H](C)O[C@@H](O[C@@H]3/C(C)=C/C[C@@H]4C[C@@H](C[C@]5(C=C[C@H](C)[C@@H](C(C)C)O5)O4)OC(=O)[C@@H]4C=C(C)[C@@H](O)[C@H]5OC/C(=C\C=C\[C@@H]3C)[C@]54O)C[C@@H]2OC)O[C@@H](C)[C@@H]1O [ABAMECTIN] | Not Active | Not Active | Not Active | Not Active | Not Active | Not Active | Not Active | Not Active | Not Active | Not Active |  |  |  |  |  | 
C[C@@H]1O[C@@H](O[C@@H]2C=C3CC[C@@H]4[C@H](CC[C@]5(C)[C@@H](c6ccc(=O)oc6)CC[C@]45O)[C@@]3(C)CC2)[C@H](O)[C@H](O)[C@H]1O [PROSCILLARIDIN] | Not Active | Not Active | Not Active | Not Active | Not Active | Not Active | Not Active | Not Active | Not Active | Not Active |  |  |  |  |  | 
CN(C)[C@@H]1C(O)=C(C(N)=O)C(=O)[C@@]2(O)C(O)=C3C(=O)c4c(O)ccc(Cl)c4[C@@](C)(O)[C@H]3C[C@@H]12 [CHLORTETRACYCLINE] | Not Active | Not Active | Not Active | Not Active | Not Active | Not Active | Not Active | Not Active | Not Active | Not Active |  |  |  |  |  | 
Nc1ccn([C@@H]2O[C@H](CO)[C@@H](O)[C@@H]2O)c(=O)n1 [CYTARABINE] | Not Active | Not Active | Not Active | Not Active | Not Active | Not Active | Not Active | Not Active | Not Active | Not Active |  |  |  |  |  | 
NYSTATIN | Not Active | Not Active | Not Active | Not Active | Not Active | Not Active | Not Active | Not Active | Not Active | Not Active |  |  | Not Active | Not Active | Not Active | Not Active
Cc1cc2c(OCC(CNC(C)(C)C)OC(=O)c3ccccc3)cccc2[nH]1 (stereo not given) [BOPINDOLOL] | Not Active | Not Active | Not Active | Not Active | Not Active | Not Active | Not Active | Not Active | Not Active | Not Active |  |  |  |  |  | 
CC(=O)Oc1ccc(C(c2ccc(OC(C)=O)cc2)c2ccccn2)cc1 [BISACODYL] | Not Active | Not Active | Not Active | Not Active | Not Active | Not Active | Not Active | Not Active | Not Active | Not Active |  |  |  |  |  | 
